In patent publication US20090170923A1, “HCV INHIBITORS” (priority 2004, published 2009):
Counter-ions that a name gives are not always drawn.

Each molecule was assayed on HCV genotype 1b strain Con1 replicon (ET replicon line, Huh7 cells) (assay: HCV ET replicon luciferase assay). Conditions: Hepatitis C virus, Huh-7; Huh7 cells stably transfected with HCV genotype 1b Con1 replicon; firefly luciferase readout; 72 hours incubation.
Format: cell-based
Experimental: Compounds of the current invention are believed useful in the treatment and/or prophylaxis of conditions and diseases associated with HcV infection. Activity mediated through HCV was determined using an ET replicon line.
The Materials used include a Medium comprised of DMEM (IX liquid, high glucose); Invitrogen cat #11965-092; 100× Penicillin/Streptomycin solution (10,000 Units/mL); Invitrogen cat #15140-122; 100× Non-essential amino acid solution (10 mM); Invitrogen cat #11140-050; Fetal bovine serum; JRH Biosciences cat #12107-500M; Geneticin (50 mg/mL); Invitrogen cat #10131-035
The Luciferase assay reagents include Steady-Glo Luciferase assay system, cat # E2550 (Promega)
The ET replicon line (see Lohmann et al. (1999), Replication of subgenomic hepatitis C virus RNAs in a hepatoma cell line. Science 285: 110-113; Krieger et al. (2001), Enhancement of hepatitis C virus RNA replication by cell culture-adaptive mutations. J. Virol. 75: 4614-4624; and Vrolijk et al. (2003), A replicon-based bioassay for the measurement of interferons in patients with chronic hepatitis C. J. Virol. Meth. 110: 201-209, each herein incorporated by reference with regard to the ET replicon line), includes Huh7 cells stably transfected with HCV genotype 1b strain Con1 replicon. This replicon expresses the firefly luciferase, has the coding region for ubiquitin inserted upstream of the neomycin gene, and carries three cell culture-adaptive mutations that enhance RNA replication cooperatively (E1202G, T1280I, and S2197P). The ET cell line was obtained under licence from: ReBLikon GmbH, Nach dem alten Schloss 22, 55239 Gau-Odernheim, Germany. […]
Cells are grown to approximately 80% confluency and trypsinised as described above. Cells are counted in a Levy Hemocytometer and diluted to 20,000 cells/ml in DMEM containing 10% FBS, 1× penicillin/streptomycin, 1×NEAAs. […]
245 μL cell suspension is added to the first 11 columns of the daughter plates prepared as above using a Multidrop dispenser (Titertek). […] The twelfth column of each plate is used to generate background readings for the assay. […]

Row | Structure (SMILES) | IC50 [nM]
1 | C[C@@H](N[C@@H]1CCCc2c1[nH]c1ccc(Br)cc21)c1ccccc1 [Example 31, (1R)-6-bromo-N-[(1R)-1-phenylethyl]-2,3,4,9-tetrahydro-1H-carbazol-1-amine Hydrochloride Salt] | 13
2 | Brc1ccc2[nH]c3c(c2c1)CCC[C@H]3NC1Cc2ccccc2C1 [Example 27, (1R)-6-Bromo-N-(2,3-dihydro-1H-inden-2-yl)-2,3,4,9-tetrahydro-1H-carbazol-1-amine hydrochloride salt] | 54
3 | C[C@H](N[C@@H]1CCCc2c1[nH]c1ccc(Br)cc21)c1ccccc1 [Example 36, (1R)-6-Bromo-N-[(1S)-1-phenylethyl]-2,3,4,9-tetrahydro-1H-carbazol-1-amine Hydrochloride Salt] | 8
